From article PMC9738062, “Selectively Halogenated Flavonolignans—Preparation and Antibacterial Activity” (International Journal of Molecular Sciences, 2022)

Assays:
[1] = tested on: S. aureus biofilm formation; set-up: method as in PMID 28365326; conditions: cited from earlier work
[2] = tested on: pooled male rat microsomal liver membranes; test: Inhibition of lipid peroxidation induced by tert-butyl hydroperoxide; assay type: biochemical; conditions: male rat microsomes, read-out: ILP IC50
Procedure: (§1) The antiradical activity was evaluated by the ability to scavenge ABTS and DPPH radicals. Reducing capacity was assessed by the ability to reduce the Folin–Ciocalteu reagent (FCR) and ferric ions (FRAP). The ability to inhibit lipid peroxidation of pooled male rat microsomal liver membranes induced by tert-butyl hydroperoxide was also evaluated and the results were expressed as IC50 values.

[3] = DPPH radical scavenging; conditions: 1,1-diphenyl-2-picrylhydrazyl radical scavenging
Procedure: (§2) To further elucidate how halogenation affects other properties of the flavonoids studied, their 2,2′-azino-bis-(3-ethylbenzothiazoline-6-sulfonic acid) cation (ABTS) and 1,1-diphenyl-2-picrylhydrazyl (DPPH) radical scavenging, the Folin–Ciocalteu reagent (FCR) reducing, the ferric-reducing antioxidant power (FRAP), and the anti-lipoperoxidation activities were evaluated by in vitro methods (Supplementary Information Tables S1 and S2).
as §1

[4] = tested on: Vibrio campbellii BAA 1119 (AI-2); test: microbe, parasite or virus in culture; assay type: cell-based; conditions: for EC50: Vibrio campbellii, BAA1119, 16 h, read-out: EC50 (concentration that halved the communication); for SI (selectivity index): ratio IC50 (viability) / EC50 (communication), BAA 1119
From the text: (§3) Commercially available strains of Vibrio campbellii were used to evaluate the ability of flavonoids and their derivatives to inhibit bacterial quorum sensing. V. campbellii uses two types of autoinducing molecules for its communication—N-acyl-homoserine lactones (Autoinducer I, AI-1, strain BAA 1118) and furanosyl borate diester (Autoinducer II, AI-2, strain BAA 1119). AI-1-based communication is mainly used by Gram-negative bacteria, while AI-2-based communication is found in both Gram-negative and Gram-positive bacteria. The mutant strains of V. campbellii BA1118 and BA1119 respond only to AI-1 or AI-2, respectively, and the response to the respective AI concentration is measured as luminescence. The higher the AI concentration, the higher the luminescence signal. The ability to inhibit the communication was expressed as the selectivity index (SI), calculated as the ratio between the concentration that halved the viability (IC50) and the concentration that halved the communication (EC50) of the respective V. campbellii strains. […] The antimicrobial activity of quorum-sensing inhibitors is undesirable because it creates a selection pressure and can lead to the development of resistance.
(§4) The inhibition of bacterial extracellular communication was measured using Vibrio campbellii strains BAA-1118 and BAA-1119. The experiment was performed according to the methods of Szemerédi et al.. Briefly, 5 × 10^5 CFU/mL (colony-forming units per milliliter) were seeded in an Autoinducer Bioassay medium (NaCl 17.5 g/L, MgSO4 12.3 g/L, Casamino acids 2 g/L, 10 mL of 1 M potassium phosphate pH 7.0, 10 mL of 0.1 M L-arginine, and 10 mL of glycerol in 970 mL of deionized water) in a 96-well plate. Immediately, the tested compounds were added at the final concentration of 0.2–200 µM and luminescence was recorded for 16 h by a SpectraMax i3x microplate reader set at 30 °C, an integration time of 10,000 ms, and shaking for 60 s before measurement. […] The selectivity index was calculated as the […]. The EC50 and IC50 were calculated using GraphPad Prism software version 5.00 for Windows with a nonlinear regression curve fit.

[5] = tested on: Vibrio campbellii BAA 1118 (AI-1); test: microbe, parasite or virus in culture; assay type: cell-based; conditions: for EC50: Vibrio campbellii, BAA1118, 16 h, read-out: EC50 (concentration that halved the communication)
From the text: as §3, §4

[6] = tested on: Vibrio campbellii BAA 1119 (AI-2); test: Viability of the quorum-sensing reporter culture (resazurin assay), AI-2 strain; assay type: cell-based; conditions: BAA1119, V. campbellii BAA 1119, resazurin assay, read-out: IC50 (concentration that halved the viability)
From the text: as §3, §4

[7] = tested on: multidrug-resistant S. aureus; test: Sensitization of antibiotic-resistant bacteria (compound plus breakpoint antibiotic concentration); assay type: cell-based, Staphylococcus aureus; conditions: flavonoid 40 µM, 24 h; for Effect on viability in combination with chloramphenicol: chloramphenicol 8 mg/L
Procedure: (§5) Clinically relevant antibiotics were selected for sensitization testing according to the European Committee on Antimicrobial Susceptibility Testing (EUCAST). Neither colistin and imipenem at breakpoint concentrations (according to EUCAST, […] and […]) affected the growth of the multidrug-resistant clinical strain of P. aeruginosa. Similarly, neither chloramphenicol and gentamicin at breakpoint concentrations ([…], respectively) affected the multidrug-resistant clinical strain of S. aureus. Flavonoids and their derivatives (1–40 µM) were used in combination therapy, along with the breakpoint concentration of antibiotics. After co-incubation, the minimum inhibitory concentration of flavonoids inhibiting the visible growth of bacteria was determined (Table 2).
(§6) Clinical isolates of P. aeruginosa and S. aureus were obtained from the General University Hospital in Prague (Prague, Czech Republic). P. aeruginosa was resistant to ciprofloxacin, oxacillin, ticarcillin, colistin, gentamicin, and imipenem. S. aureus was resistant to ciprofloxacin, gentamicin, erythromycin, chloramphenicol, clindamycin, oxacillin, cefotaxime, and vancomycin. Bacteria were cultivated in Mueller–Hinton broth (MH broth, Merck). The susceptibility of the bacteria was evaluated by the minimum inhibitory concentrations (MIC). The MIC of derivatives in the presence of the antibiotic cut-off concentration was determined according to ISO 20776-1: 2020. The antibiotic cut-off concentration was chosen according to the European Committee on Antimicrobial Susceptibility Testing (EUCAST, Clinical breakpoints—bacteria (ver. 11.0), 1 January 2021). The 40 µM concentration of the derivatives was chosen as the highest concentration for the tests. Cell viability was determined by measuring absorbance (A590 nm) after 24 h incubation at 37 °C, 150 rpm.

[8] = tested on: doxorubicin-resistant human ovarian carcinoma (HOC/DOX); test: Cytotoxicity (resazurin assay, 72 h); assay type: cell-based; conditions: for IC50: Homo sapiens, 72 h, resazurin assay; for SI (selectivity index): ratio IC50 for HDF / IC50 for HOC/DOX
Procedure: (§7) The cytotoxicity of flavonoids and their halogenated derivatives was determined as their ability to decrease the viability of human dermal fibroblasts (HDF) and doxorubicin-resistant human ovarian carcinomas (HOC/DOX). Both cell lines were cultivated in Dulbecco’s Modified Eagle’s Medium supplemented with fetal bovine serum (FBS, 10% v/v) and 1 × antibiotic antimycotic solution and incubated at 37 °C in the atmosphere of 5% CO2. The experiment was performed according to a previously published method. Briefly, 1 × 10^5 cells/mL were seeded into a 96-well plate (100 µL/well). After 24 h, flavonoids and their derivatives were administered at the concentration range of 31.25–500 µM. After 72 h, the viability was determined by resazurin assay (0.03 mg/mL of resazurin in PBS), where the fluorescence was measured after 2 h of incubation by the SpectraMax i3x microplate reader at a wavelength of 560/590 nm (excitation/emission). The concentration inhibiting half of the population (IC50) was determined using nonlinear regression in GraphPad Prism software. The selectivity index was calculated as the ratio between the IC50 for HDF (control, non-cancerous cells) and the IC50 for HOC/DOX (cancer cells).

[9] = tested on: human dermal fibroblasts (HDF); test: Cytotoxicity (resazurin assay, 72 h); assay type: cell-based; conditions: Fibroblast
Procedure: as §7

[10] = tested on: multidrug-resistant P. aeruginosa; test: Sensitization of antibiotic-resistant bacteria (compound plus breakpoint antibiotic concentration); assay type: cell-based, Pseudomonas aeruginosa; conditions: flavonoid 40 µM, 24 h; for Effect on viability in combination with imipenem: imipenem 4 mg/L; for Effect on viability in combination with colistin: colistin 2 mg/L; as to Effect on viability in combination with imipenem: key: -: no effect (100% viability) was observed up to the highest flavonolignan concentration tested (>40 µM); reversion of resistance: the compound reversed the resistant phenotype to a sensitive one
Procedure: as §5, §6

[11] = Ferric reducing antioxidant power (FRAP); conditions: Fe2+ equivalents
Procedure: as §2, §1

[12] = Folin-Ciocalteu reagent reduction; conditions: gallic acid equivalents
Procedure: as §2, §1

[13] = tested on: lipopolysaccharide-stimulated macrophages (RAW 264.7); test: Inhibition of nitric oxide production (Griess reagent); assay type: cell-based, murine; conditions: Mus musculus, RAW264.7; LPS 100 ng/mL, 24 h; highest tested concentration 100 µM; read-out: NO Production IC50
Procedure: The anti-inflammatory activity of the tested flavonolignans was determined as the ability to reduce nitric oxide production by murine macrophages (RAW 264.7) stimulated by bacterial lipopolysaccharides, as previously described. […] For the experiment, 1 × 10^6 cells/mL was seeded into the 96-well plate (100 µL/well). […] After 24 h, the medium was mixed with Griess reagent (0.04 g/mL), prepared freshly in deionized water at the ratio of 1:1. The absorbance was measured after 15 min at 540 nm by the SpectraMax i3x microplate reader. Cell viability was determined by resazurin assay.

[14] = tested on: Vibrio campbellii BAA 1118 (AI-1); test: Viability of the quorum-sensing reporter culture (resazurin assay), AI-1 strain; assay type: cell-based; conditions: BAA1118, V. campbellii BAA 1118, resazurin assay, read-out: IC50 (concentration that halved the viability)
From the text: as §3, §4

[15] = ABTS cation radical scavenging; conditions: vitamin C equivalent antioxidant capacity
Procedure: as §2, §1

[16] = tested on: breast cancer cell lines; set-up: method as in PMID 23962161; conditions: cited from earlier work

Compound | Concentration inhibiting S. aureus biofilm formation [1] | IC50 [2] | IC50 [3] | EC50 [4] | EC50 [5] | IC50 [6] | Effect on viability in combination with chloramphenicol [7] | IC50 [8] | SI (selectivity index) [8] | IC50 [9] | Effect on viability in combination with imipenem [10] | FRAP [Fe2+eq] [11] | FCR [GAE] [12] | IC50 [13] | IC50 [14] | ABTS [CEAC] [15] | also measured
COc1ccc([C@@H]2CC(=O)c3c(O)cc(O)cc3O2)cc1O [hesperetin] | ≤ 4 µM |  |  |  |  |  |  |  |  |  |  |  |  |  |  |  | 
Cc1c(C)c2c(c(C)c1O)CCC(C)(C(=O)O)O2 (stereo not shown) [Trolox, reference compound] |  | 32.7 ± 2.4 µM | 3.5 µM |  |  |  |  |  |  |  |  |  |  |  |  |  | 
COc1cc(C2Oc3cc(-c4oc5c(Br)c(O)c(Br)c(O)c5c(=O)c4O)ccc3OC2CO)ccc1O (stereo not shown) [compound 17, 6,8-dibromo-2,3-dehydrosilybin AB] |  | 56.7 ± 1.6 µM | 11.7 µM | 4.1 ± 0.2 µM | 55.5 ± 1.6 µM | 127 ± 7.4 µM | - | 91.3 ± 1.6 µM | 0.46 | 41.7 ± 1 µM | - | 0.54 ± 0.04 Fe2+eq | 1.50 ± 0.02 GAE | 44.4 ± 2.4 µM | > 200 µM | 1.49 ± 0.04 CEAC | SI (selectivity index) [4]: 31.2 ± 3.5; Effect on viability in combination with gentamicin ([7]; gentamicin 1 mg/L): -
COc1cc([C@@H]2Oc3c(O)cc([C@H]4Oc5c(Br)c(O)c(Br)c(O)c5C(=O)[C@@H]4O)cc3[C@H]2CO)ccc1O [compound 15, 6,8-Dibromosilychristin A] |  | 459 µM | 106 µM | > 200 µM | > 200 µM | > 200 µM | - | 249 µM | 0.71 | 176 µM | - | 0.34 ± 0.03 Fe2+eq | 2.03 ± 0.05 GAE | > 100 µM | > 200 µM | 1.28 ± 0.02 CEAC | Effect on viability in combination with colistin [10]: -
O=c1c(O)c(-c2cc(O)c(O)c(O)c2)oc2cc(O)cc(O)c12 [myricetin] | ≤ 4 µM |  |  |  |  |  |  |  |  |  |  |  |  |  |  |  | 
O=C(CCc1ccc(O)cc1)c1c(O)cc(O)cc1O [phloretin] | ≤ 4 µM |  |  |  |  |  |  |  |  |  |  |  |  |  |  |  | 
COc1cc([C@@H]2Oc3c(O)cc([C@H]4Oc5c(I)c(O)c(I)c(O)c5C(=O)[C@@H]4O)cc3[C@H]2CO)ccc1O [compound 27, 6,8-diiodosilychristin A] |  | 97.2 ± 3.5 µM | 168 µM |  |  |  |  |  |  |  |  | 0.21 ± 0.01 Fe2+eq | 1.79 ± 0.05 GAE |  |  | 1.13 ± 0.01 CEAC | 
prulonide A |  |  |  |  |  |  |  |  |  |  |  |  |  |  |  |  | Concentration showing cytotoxicity [16]: 1 µM
COc1cc([C@H]2Oc3cc([C@H]4Oc5c(Br)c(O)cc(O)c5C(=O)[C@@H]4O)ccc3O[C@@H]2CO)ccc1O [compound 19, 8-bromosilybin A] |  |  | > 500 µM | 4.6 ± 0.3 µM | 33.9 ± 1.8 µM | > 200 µM | - | 202 µM | 0.38 | 77.4 ± 1.1 µM | - | 0.057 ± 0.002 Fe2+eq | 1.01 ± 0.02 GAE | 36.4 ± 1.7 µM | 115 ± 5.4 µM | 0.68 ± 0.03 CEAC | SI (selectivity index) [4]: ≥43.1 ± 2.6; SI (selectivity index) ([5]; ratio IC50 (viability) / EC50 (communication), BAA 1118): 3.4 ± 0.3; Effect on viability in combination with colistin [10]: -
